Results on 2 molecules are retold here after article PMC11187217, “Anti-adhesive, anti-biofilm and fungicidal action of newly synthesized gemini quaternary ammonium salts” (Scientific Reports, 2024).

A short description of data set [1]: Krafft point (TK) determination. Type of data set: physicochemical. The method, then:
(§1) Elemental analysis was conducted utilizing Vario EL cube (Elementar, Germany) calibrated on acetanilide. Mass spectra were gain by electrospray ionization mass spectroscopy (ESI–MS) (micrOTOF-Q instrument; Bruker Daltonics, Germany). The ESI–MS aparatus was operated in the positive ion mode (calibrated with the Tunemix™ mixture; Bruker Daltonics; Germany), followed by spectra analysis by the DataAnalysis 3.4 software (Bruker Daltonics, Germany)—resolution of at least 5 ppm. Proton NMR and ^13C NMR measurements were performed on a Bruker AMX-500 spectrometer, utilizing CDCl3 or DMSO-d6 as a solvent. Proton and ^13C chemical shifts (given in ppm) were calibrated to TMS (δ = 0 ppm) as an internal reference. Krafft points were measured according to procedures described in our previous studies Lamch et al.,[82]. Values of CMC for all surfactants were measured utilizing the conductometric method for the compounds’ solutions in milliQ water in the same manner as described in Kula et al.. For all spectra: ^1H NMR, ^13C NMR and ESI–MS as well as appropriate comments see Electronic Supplementary Material.

A short description of data set [2]: Critical micelle concentration (CMC), conductometric method. In kind it is physicochemical. As to conditions: double distilled water, 25 °C.
From the text: Alkanoyl chlorides (dodecanoyl, tetradecanoyl and hexadecanoyl) were obtained from Sigma-Aldrich. Anhydrous lactic acid (99%, crystalline) was purchased from Alfal. All solvents were obtained from Avantor Performance Materials or Stanlab and used as received. Methanol (solvent) for counterions exchange reactions was analytical grade (Avantor Performance Materials) and was additionally dried over CaH2 prior synthesis. Deuterated solvents were from Sigma-Aldrich. CMC values of surfactants were measured conductometrically in double distilled water at 25 °C.
as §1

Data set [3] concerns S. cerevisiae Σ1278b ATCC 42800. Description: Cytotoxicity, alamarBlue (resazurin) assay on yeast cells. In kind it is cell-based, Saccharomyces cerevisiae. As to conditions: ¼ and ½ MIC. The method, then:
To determine the cytotoxicity of the tested gemini QAS on yeast cells, an experiment was performed using the alamarBlue colorimetric assay to determine the metabolic activity of cells, using the modified alamarBlue Cell Viability Assay Reagent method. Enzymes of the electron transport system reduce the blue resazurin solution to resorufin, which is fluorescent pink.
The yeast culture S. cerevisiae Σ1278b was incubated at 28 °C for 16 h with shaking (100 rpm), centrifuged (1000 rcf, 5 min) and the optical density was obtained, OD = 1.0, λ = 590 nm. On a 96-well titration plate we spotted 160 μl of YPG medium, 20 μl of yeast culture and the tested gemini QAS at final concentrations of ½ and ¼ MIC. The negative control was YPG medium with resazurin solution, and the positive control was resazurin solution with yeast culture. The plates were incubated at 28 °C for 12 h. Then, 20 μl of resazurin solution (alamarBlue) was added to the wells and the plate was incubated for 4 h in the dark. After incubation, the absorbance was measured at λ = 570 nm and λ = 600 nm and the color change of the wells from blue to pink was observed. The experiment was performed in 3 repetitions.
Background: Alamar Blue is a resazurin reagent that responds to reducing activity.

For data set [4], the system named is Rhodotorula mucilaginosa ATCC 4056. The experiment in a line: MIC/MFC, microdilution method (modified CLSI M27). Type of data set: cell-based. The following applies: 28 °C; for Minimum inhibitory concentration (MIC): 90% growth inhibition, YPG. The method, then:
(§2) Minimum inhibitory concentration (MIC) and minimum fungicidal concentration (MFC) values were determined based on the modified CLSI M27 protocol. The study was performed using the microdilution method on sterile 96-well titration plates. The S. cerevisiae Σ1278b ATCC 42800, S. cerevisiae BY4741 ATCC 201388, C. albicans ATCC 10231, C. albicans 595/20 and R. mucilaginosa ATCC 4056 were incubated for 18 h at 28 °C (without shaking), then centrifuged (1000 rcf, 5 min), and the obtained pellet was suspended in fresh YPG medium and optical density (OD) = 0.25–0.3 was determined at a wavelength (λ) of 590 nm. Next, 10 μl of selected compounds at appropriate final concentrations (5–1280 μM) were spotted into the wells of the titration plate. Then, 80 μl of YPG medium and 10 μl of culture with a fixed OD were added. All tests were performed in triplicate. The plate was incubated at 28 °C for 24 h. The YPG medium was a negative control, while the prepared culture not treated with compounds was a positive control. […] The minimum inhibitory concentration was determined at 90% growth inhibition.
(§3) In order to determine the MFC of selected gemini surfactants, 10 μl of culture was transferred to solid YPG medium from the wells of the titration plate in which MIC was observed and from wells with the compound with higher concentrations. The spotted suspensions were incubated at 28 °C for 24 h. After incubation, inhibition of the growth of microorganisms was observed.
For orientation: In broth dilution the organism is exposed to a series of concentrations in liquid medium.

Data set [5] has as its system Saccharomyces cerevisiae BY4741 ATCC 201388. The experiment in a line: MIC/MFC, microdilution method (modified CLSI M27). In kind it is cell-based. The following applies: for MIC: YPG, read-out: Minimum inhibitory concentration (MIC). The method, then:
as §2, §3

Data set [6] has as its system Saccharomyces cerevisiae Σ1278b ATCC 42800. Description: MIC/MFC, microdilution method (modified CLSI M27). Type of data set: cell-based. The following applies: S. cerevisiae Σ1278b, 28 °C; for MIC: 90% growth inhibition, YPG, read-out: Minimum inhibitory concentration (MIC); for MFC: no growth on solid YPG, read-out: Minimum fungicidal concentration (MFC*). The method, then: as §2, §3

The subject of data set [7] is Candida albicans ATCC 10231. The experiment in a line: MIC/MFC, microdilution method (modified CLSI M27). In kind it is cell-based. As to conditions: 28 °C. The method, then: as §2, §3
The next data set concerns Candida albicans 595/20. The experiment in a line: MIC/MFC, microdilution method (modified CLSI M27). Type of data set: cell-based. The following applies: C. albicans 595/20 (clinical isolate), 28 °C. The method, then: as §2, §3
The next data set relates to C. albicans ATCC 10231. The experiment in a line: Filamentation of Candida albicans (DIC microscopy). As to conditions: 24 h incubation, ½ MIC, 37 °C. Type of data set: cell-based. The method, then:
The culture of C. albicans ATCC 10231 was incubated in YPG medium at 28 °C for 18 h. Then the culture was centrifuged (1000 rcf, 5 min), and the resulting pellet was suspended in fresh YPG medium to obtain a culture with OD = 0.6. […] The formation of filaments was observed using a differential interference contrast microscope (Olympus BX50 DIC Microscope) after 12 and 24 h of exposure to selected surfactants on C. albicans cells. The control was a culture not exposed to gemini QAS. The experiment was performed based on a modification of the protocol of Obłąk et al. ^46.

Where [8] appears, read: R. mucilaginosa ATCC 4056, 24 h.
[9] abbreviates: Saccharomyces cerevisiae, ATCC42800, 24 h.

Like-named read-outs stand apart in the source and are kept apart here. Marks after values point to notes of the source that are not given here.

Consider `CCCCCCCCCCCCCCCC(=O)N(CCCN(CCC[N+](C)(C)C)C(=O)CCCCCCCCCCCCCCC)CCC[N+](C)(C)C` [2xC16BrG3], for which the “TK (Krafft point)” value in data set [1] is ~ 5 °C. In data set [2], the CMC is reported as 4.6*10^–7 mol/dm^3. The “Cytotoxic potential towards mitochondrial metabolism of S. cerevisiae Σ1278b cells” value in data set [3] is “did not have cytotoxic potential”. Moreover, the “Minimum inhibitory concentration (MIC)” value in data set [4] (setting [8]) was > 640 640* µM. Moreover, the MFC is 640 µM in data set [4] (Rhodotorula mucilaginosa, ATCC4056, 24 h, R. mucilaginosa ATCC 4056, no growth on solid YPG, read-out: Minimum fungicidal concentration (MFC*)); greater than 1280 µM in [5] (Saccharomyces cerevisiae, ATCC201388, 24 h, read-out: Minimum fungicidal concentration (MFC*), S. cerevisiae BY4741, no growth on solid YPG, 28 °C); greater than 1280 µM in [6] (setting [9]); greater than 1280 µM in data set [7] (Candida albicans, ATCC10231, 24 h, C. albicans ATCC 10231, no growth on solid YPG, read-out: Minimum fungicidal concentration (MFC*)); greater than 1280 µM in the data set with Candida albicans 595/20 (Candida albicans, no growth on solid YPG, 24 h, read-out: Minimum fungicidal concentration (MFC*)). The MIC was 320 µM in data set [5] (Saccharomyces cerevisiae, ATCC201388, 24 h, S. cerevisiae BY4741, 90% growth inhibition, 28 °C); greater than 1280 µM in data set [6] (setting [9]); greater than 1280 µM in [7] (Candida albicans, ATCC10231, 24 h, C. albicans ATCC 10231, 90% growth inhibition, YPG, read-out: Minimum inhibitory concentration (MIC)); greater than 1280 µM with Candida albicans 595/20 (Candida albicans, 595/20, 24 h, 90% growth inhibition, YPG, read-out: Minimum inhibitory concentration (MIC)). In addition, the “Effect on production of filaments by C. albicans” value with C. albicans ATCC 10231 (listed as dibromides with 16-carbon alkyl chains) is given as “largely prevented the formation of filaments”.
On to `CCCCCCCCCCCC(=O)N(CCCN(CCC[N+](C)(C)C)C(=O)CCCCCCCCCCC)CCC[N+](C)(C)C` [2xC12MeCO3G3, dimethyl{{3-[N-(3-{N-[3-(dimethylammonium)propyl]dodecylamido}propyl}dodecylamido}propyl}}ammonium dimethylcarbonate], for which the “TK (Krafft point)” value in data set [1] is less than 0 °C. For the same molecule, the CMC in data set [2] was 1.8*10^–4 mol/dm^3. Moreover, in data set [3], the “Cytotoxic potential towards mitochondrial metabolism of S. cerevisiae Σ1278b cells” value is given as “did not have cytotoxic potential”. The “Minimum inhibitory concentration (MIC)” value in data set [4] (setting [8]) was 320 320* µM; in data set [7] (C. albicans ATCC 10231, 90% growth inhibition, YPG, 24 h), > 1280 > 1280* µM; with Candida albicans 595/20 (90% growth inhibition, YPG, 24 h) it was > 1280 > 1280* µM. The “Minimum fungicidal concentration (MFC*)” value was 320 320* µM in data set [4] (R. mucilaginosa ATCC 4056, no growth on solid YPG, 24 h); 1280 µM in [5] (S. cerevisiae BY4741, no growth on solid YPG, 28 °C, 24 h); > 1280 > 1280* µM in data set [7] (C. albicans ATCC 10231, no growth on solid YPG, 24 h); > 1280 > 1280* µM in the data set on Candida albicans 595/20 (no growth on solid YPG, 24 h). In addition, the MIC in data set [5] (S. cerevisiae BY4741, 90% growth inhibition, 28 °C, 24 h) is on record as 160 µM; in data set [6] (24 h), 640 µM. Moreover, in data set [6] (24 h), the MFC is greater than 1280 µM. In addition, the “Effect on production of filaments by C. albicans” value with C. albicans ATCC 10231 is on record as “almost completely inhibited the production of filaments”.
